Laboratory results as given in ChEMBL document CHEMBL1156128, “Nitric oxide-donating carbonic anhydrase inhibitors for the treatment of open-angle glaucoma” (Bioorg Med Chem Lett, 2009).
Values after ≈ are worked out from the molar mass of the structure shown.

How the values were obtained:
physchem = details: buffer, pH 6
Oryctolagus cuniculus = species on record: Oryctolagus cuniculus; assay: tissue or blood; details: Aorta
Description: Vasorelaxant activity against methoxiamin-induced contraction in rabbit aortic ring

Carbonic anhydrase 1 = Carbonic anhydrase 1 (Homo sapiens, UniProt P00915); assay: Inhibition of human carbonic anhydrase 1 up to 100 uM by CO2 hydrase stopped flow assay
Chain of Carbonic anhydrase 1 (P00915 whole entry): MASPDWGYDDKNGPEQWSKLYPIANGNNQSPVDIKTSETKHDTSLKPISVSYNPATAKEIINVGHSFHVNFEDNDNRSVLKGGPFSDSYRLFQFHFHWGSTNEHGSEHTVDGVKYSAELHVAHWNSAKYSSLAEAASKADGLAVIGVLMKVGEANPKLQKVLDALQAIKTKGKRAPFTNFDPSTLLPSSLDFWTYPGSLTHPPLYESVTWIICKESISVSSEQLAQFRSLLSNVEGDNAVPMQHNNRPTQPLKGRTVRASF

Carbonic anhydrase 2 = Carbonic anhydrase 2 (Homo sapiens, UniProt P00918); assay: Inhibition of human carbonic anhydrase 2 up to 100 uM by CO2 hydrase stopped flow assay
Carbonic anhydrase 4 = Carbonic anhydrase 4 (Homo sapiens, UniProt P22748); assay: Inhibition of human carbonic anhydrase 4 up to 100 uM by CO2 hydrase stopped flow assay
Chain of Carbonic anhydrase 4 (P22748 whole entry): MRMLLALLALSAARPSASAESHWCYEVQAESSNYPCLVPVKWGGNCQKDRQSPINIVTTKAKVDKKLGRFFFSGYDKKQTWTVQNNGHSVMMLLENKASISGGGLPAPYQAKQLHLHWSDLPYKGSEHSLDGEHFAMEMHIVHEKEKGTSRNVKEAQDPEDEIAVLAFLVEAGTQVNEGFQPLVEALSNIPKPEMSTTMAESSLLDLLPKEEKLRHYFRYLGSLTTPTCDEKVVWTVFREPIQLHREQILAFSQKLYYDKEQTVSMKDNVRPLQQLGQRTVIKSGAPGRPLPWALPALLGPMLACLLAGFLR

## CCN(C(=O)CCCCCO[N+](=O)[O-])[C@H]1C[C@H](C)S(=O)(=O)c2sc(S(N)(=O)=O)cc21
physchem
  solubility: 0.25 mg/mL (≈ 0.517 mM)
Oryctolagus cuniculus
  EC50: 4.25 µM

## CCN(C(=O)OCC(CO[N+](=O)[O-])O[N+](=O)[O-])[C@H]1C[C@H](C)S(=O)(=O)c2sc(S(N)(=O)=O)cc21 (stereo not given in full)
Oryctolagus cuniculus
  EC50: 0.37 µM

## CCN(C(=O)OCCCO[N+](=O)[O-])[C@H]1C[C@H](C)S(=O)(=O)c2sc(S(N)(=O)=O)cc21
physchem
  solubility: 15.1 mg/mL (≈ 32 mM)
Oryctolagus cuniculus
  EC50: 2.05 µM

## O=[N+]([O-])O[C@@H]1CO[C@H]2[C@@H]1OC[C@@H]2O [ISOSORBIDE MONONITRATE]
Carbonic anhydrase 1
  Ki: Not Active
Carbonic anhydrase 2
  Ki: Not Active
Carbonic anhydrase 4
  Ki: Not Active
physchem
  solubility: < 20 mg/mL
Oryctolagus cuniculus
  EC50: 10.8 µM
